Literature values, collected in patent publication US7147875B2, “Method and composition for relieving symptoms of arthritis and gout using fruit of miracles” (priority 2004, dated 2006).

SMILES: COc1cc2c(c(OC)c1OC)-c1ccc(OC)c(=O)cc1[C@@H](NC(C)=O)CC2 [colchicine]
- Time until the pain is completely relieved (from starting treatment): 48 h
- Time until the pain subsides (from starting treatment): ≤ 12 h
- Reducing pain, swelling and inflammation associated with acute gout attacks (in vivo): effective
- Uric acid levels in the bloodstream (in vivo): does not decrease
